Read-outs that look alike come from different tables or passages of the source.
What was measured:
Assay type in all cases: biochemical
TYK2 = TYK2 (Homo sapiens (Human), UniProt P29597); assay: JAK Caliper Enzyme Assay at 1 mM ATP, TYK2
Procedure, shortened: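 Inhibition is measured as reduced phosphorylation of a synthetic peptide by the recombinant human kinase domain at 1 mM ATP. Conditions give 20–30% conversion at room temperature before EDTA quench, and on-chip separation of labelled substrate and product yields percent conversion for dose–response plotting.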

JAK1 = JAK1 (Homo sapiens (Human), UniProt P23458); assay: JAK Caliper Enzyme Assay at 1 mM ATP, JAK1
Procedure, shortened: (§1)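 Recombinant human kinase domains phosphorylate a fluorescent synthetic peptide at 1 mM ATP, room temperature, with enzyme and time tuned for 20-30% conversion; EDTA-stopped. Product/substrate separated by microfluidic mobility shift; percent effect versus DMSO and positive controls fitted to IC50 (nM).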

JAK2 = JAK2 (Homo sapiens (Human), UniProt O60674); assay: JAK Caliper Enzyme Assay at 1 mM ATP, JAK2
Experimental: Compounds of the invention were evaluated by in vitro methods to determine their respective ability to inhibit the JAK kinases (TYK2, JAK1, JAK2, JAK3).
The human JAK inhibitory activity was determined by using a microfluidic assay to monitor phosphorylation of a synthetic peptide by the recombinant human kinase domain of each of the four members of the JAK family, JAK1, JAK2, JAK3 and TYK2. […] Each assay condition was optimized for enzyme concentration and room temperature incubation time to obtain a conversion rate of 20% to 30% phosphorylated peptide product. Reactions were terminated by the addition of stop buffer containing EDTA. Utilizing the LabChip 3000 mobility shift technology (Caliper Life Science), each assay reaction was sampled to determine the level of phosphorylation. This technology is separation-based, allowing direct detection of fluorescently labeled substrates and products. Separations are controlled by a combination of vacuum pressure and electric field strength optimized for each peptide substrate.
JAK Caliper Enzyme Assay at 1mM ATP
Compounds were added to a 384-well plate.
The data was collected using the HTS Well Analyzer software from Caliper Life Sciences. The data output for data analysis is the percent product converted calculated on peak height (Equation 1). % product converted=100*((product)/(product+substrate)) Equation 1: […]
The percent effect at each compound concentration was calculated based on the positive and negative control well contained within each assay plate (Equation 2). […] The negative control wells contained DMSO alone (at the same concentration as the compound wells) that was used to set the baseline activity in the assay (i.e., uninhibited JAK1, JAK2, JAK3 or TYK2). % effect=100*([…](positive control-negative control)) Equation 2: […]
The percent effect was plotted against the compound concentration compound.

JAK3 = JAK3 (Homo sapiens (Human), UniProt P52333); assay: JAK Caliper Enzyme Assay at 1 mM ATP, JAK3
Procedure, shortened: as §1

JAK3, sequence (P52333 822-1111): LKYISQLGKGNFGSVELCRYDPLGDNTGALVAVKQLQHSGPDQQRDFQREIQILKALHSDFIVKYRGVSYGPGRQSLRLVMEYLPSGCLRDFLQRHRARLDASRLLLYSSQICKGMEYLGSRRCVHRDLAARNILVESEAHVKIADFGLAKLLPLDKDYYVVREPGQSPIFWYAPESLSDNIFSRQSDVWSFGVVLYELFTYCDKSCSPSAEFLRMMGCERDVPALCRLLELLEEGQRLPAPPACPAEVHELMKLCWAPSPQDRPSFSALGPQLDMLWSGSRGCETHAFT
JAK2, sequence (O60674 849-1124): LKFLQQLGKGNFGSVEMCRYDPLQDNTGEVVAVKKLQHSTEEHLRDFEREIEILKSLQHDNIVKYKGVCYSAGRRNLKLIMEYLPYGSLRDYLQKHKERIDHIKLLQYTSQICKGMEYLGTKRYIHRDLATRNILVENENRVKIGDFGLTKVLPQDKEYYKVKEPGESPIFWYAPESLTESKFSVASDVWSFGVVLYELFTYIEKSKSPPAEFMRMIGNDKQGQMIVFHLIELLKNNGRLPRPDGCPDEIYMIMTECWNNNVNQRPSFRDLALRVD
TYK2, sequence (P29597 897-1176): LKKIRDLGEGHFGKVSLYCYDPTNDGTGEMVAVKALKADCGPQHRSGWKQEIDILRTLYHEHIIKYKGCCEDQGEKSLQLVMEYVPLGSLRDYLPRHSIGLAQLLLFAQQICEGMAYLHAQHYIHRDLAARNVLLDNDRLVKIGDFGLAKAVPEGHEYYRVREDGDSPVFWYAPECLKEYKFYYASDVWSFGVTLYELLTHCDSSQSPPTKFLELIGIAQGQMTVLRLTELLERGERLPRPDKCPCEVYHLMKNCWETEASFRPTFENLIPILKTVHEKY
JAK1, sequence (P23458 875-1153): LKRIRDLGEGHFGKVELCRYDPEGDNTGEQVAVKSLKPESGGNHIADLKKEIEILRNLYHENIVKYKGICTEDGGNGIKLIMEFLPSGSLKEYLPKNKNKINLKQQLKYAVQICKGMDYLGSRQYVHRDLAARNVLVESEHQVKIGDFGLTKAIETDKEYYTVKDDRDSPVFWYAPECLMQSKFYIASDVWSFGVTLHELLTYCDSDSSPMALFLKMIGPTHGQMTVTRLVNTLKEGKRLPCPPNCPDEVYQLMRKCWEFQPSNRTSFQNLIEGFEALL

SMILES	IC50 (TYK2)	IC50 (JAK1)	IC50 (JAK2)	IC50 (JAK3)	IC50 (TYK2; JAK Caliper enzyme assay)	IC50 (JAK1; JAK Caliper enzyme assay)	IC50 (JAK2; JAK Caliper enzyme assay)	IC50 (JAK3; JAK Caliper enzyme assay)
Cc1ccc(-c2cc3ncccc3c(-c3ccn(C4(CC#N)CN(S(C)(=O)=O)C4)n3)n2)cn1 [Example 175, [3-{3-[7-(6-methylpyridin-3-yl)-1,6-naphthyridin-5-yl]-1H-pyrazol-1-yl}-1-(methylsulfonyl)azetidin-3-yl]acetonitrile]	135 nM	5740 nM	1180 nM	> 10000 nM	–	–	–	–
CN(C)CCn1cc(-c2cc3ncccc3c(-c3ccn([C@]4(CC#N)C[C@H](C#N)C4)n3)n2)cn1 [Example 114, cis-3-(cyanomethyl)-3-[3-(7-{1-[2-(dimethylamino)ethyl]-1H-pyrazol-4-yl}-1,6-naphthyridin-5-yl)-1H-pyrazol-1-yl]cyclobutanecarbonitrile]	46 nM	404 nM	41 nM	1170 nM	–	–	–	–
CS(=O)(=O)N1CC(CC#N)(n2ccc(-c3nc(-c4ccc5nccn5c4)cc4ncccc34)n2)C1 [Example 162, [3-{3-[7-(imidazo[1,2-a]pyridin-6-yl)-1,6-naphthyridin-5-yl]-1H-pyrazol-1-yl}-1-(methylsulfonyl)azetidin-3-yl]acetonitrile]	68 nM	788 nM	546 nM	> 10000 nM	–	–	–	–
Cn1cc(-c2cc3ncccc3c(-c3ccn(C4(CC#N)CN(CC(F)(F)F)C4)n3)n2)cn1 [Example 99, [3-{3-[7-(1-methyl-1H-pyrazol-4-yl)-1,6-naphthyridin-5-yl]-1H-pyrazol-1-yl}-1-(2,2,2-trifluoroethyl)azetidin-3-yl]acetonitrile]	16 nM	563 nM	133 nM	> 10000 nM	–	–	–	–

Results, then the compound that gave them:

IC50 (TYK2)	IC50 (JAK1)	IC50 (JAK2)	IC50 (JAK3)	IC50 (TYK2; JAK Caliper enzyme assay)	IC50 (JAK1; JAK Caliper enzyme assay)	IC50 (JAK2; JAK Caliper enzyme assay)	IC50 (JAK3; JAK Caliper enzyme assay)	SMILES
–	–	–	–	7540 nM	> 10000 nM	> 10000 nM	> 10000 nM	CS(=O)(=O)N1CC(CC#N)(n2ncc(-c3cc(-c4cc(F)ccc4O)cc4ncccc34)n2)C1 [Example 442]
736 nM	> 10000 nM	4710 nM	> 10000 nM	–	–	–	–	Cn1ncc(-c2cc(-c3cnn([C@]4(CC#N)C[C@@H](C#N)C4)n3)c3cccnc3c2)c1C(N)=O [Example 334, 4-(5-{2-[cis-3-cyano-1-(cyanomethyl)cyclobutyl]-2H-1,2,3-triazol-4-yl}quinolin-7-yl)-1-methyl-1H-pyrazole-5-carboxamide]
–	–	–	–	78 nM	6350 nM	774 nM	> 10000 nM	N#CC[C@]1(n2ncc(-c3cc(-c4cc(N)ncn4)cc4ncccc34)n2)C[C@@H](C#N)C1 [Example 395, cis-3-{4-[7-(6-aminopyrimidin-4-yl)quinolin-5-yl]-2H-1,2,3-triazol-2-yl}-3-(cyanomethyl)cyclobutanecarbonitrile]
–	–	–	–	30 nM	1210 nM	609 nM	> 10000 nM	CS(=O)(=O)N1CC(CC#N)(n2ncc(-c3cc(-c4ccc(O)cc4)cc4ncccc34)n2)C1 [Example 439, [3-{4-[7-(4-hydroxyphenyl)quinolin-5-yl]-2H-1,2,3-triazol-2-yl}-1-(methylsulfonyl)azetidin-3-yl]acetonitrile]
342 nM	> 10000 nM	2950 nM	> 10000 nM	–	–	–	–	Cn1cc(-c2cc(-c3ccn(C4(CC#N)CN(CC(F)(F)F)C4)n3)c3cccnc3c2)cn1 [Example 285, [3-{3-[7-(1-methyl-1H-pyrazol-4-yl)quinolin-5-yl]-1H-pyrazol-1-yl}-1-(2,2,2-trifluoroethyl)azetidin-3-yl]acetonitrile]
–	–	–	–	35 nM	575 nM	93 nM	9500 nM	Cc1nc(-c2cc(-c3cnn([C@]4(CC#N)C[C@H](C#N)C4)n3)c3cccnc3c2)ccc1CCO [Example 378, cis-3-(cyanomethyl)-3-(4-{7-[5-(2-hydroxyethyl)-6-methylpyridin-2-yl]quinolin-5-yl}-2H-1,2,3-triazol-2-yl)cyclobutanecarbonitrile]

Source: patent publication US11254668B2, “Pyrazolo[1,5-A]pyrazin-4-yl and related derivatives” (Pfizer Inc., priority 2017, dated 2022)
